Results: patent US10206907B2, “Compounds useful for the treatment of degenerative and inflammatory diseases” (GALAPAGOS NV, priority 2008, dated 2019)

Key:
[1] = molecular target: Recombinant human JAK1 catalytic domain (Homo sapiens (Human), UniProt P23458); assay: JAK1 inhibition assay; assay type: biochemical; conditions: semi-quantitative score
Method in brief: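 Radiometric assay read by scintillation counting after phosphoric-acid washes. Percent inhibition calculated from cpm relative to vehicle and 10 μM staurosporine control. IC50 derived from compound dose-dilution series.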

[2] = molecular target: Recombinant human JAK2 catalytic domain (Homo sapiens (Human), UniProt O60674); assay: JAK2 inhibition assay; assay type: biochemical; conditions: semi-quantitative score
Sequence of Recombinant human JAK2 catalytic domain (O60674 808-1132): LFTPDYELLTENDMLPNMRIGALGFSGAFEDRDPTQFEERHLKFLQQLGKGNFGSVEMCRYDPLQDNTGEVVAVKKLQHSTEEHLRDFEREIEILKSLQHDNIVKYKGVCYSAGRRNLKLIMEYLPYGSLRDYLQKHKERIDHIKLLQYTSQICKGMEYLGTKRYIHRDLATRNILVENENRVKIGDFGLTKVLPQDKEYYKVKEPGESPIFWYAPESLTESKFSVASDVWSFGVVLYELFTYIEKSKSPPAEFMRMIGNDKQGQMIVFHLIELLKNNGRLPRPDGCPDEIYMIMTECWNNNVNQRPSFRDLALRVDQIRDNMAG
Method: After 90 min at 30° C., reactions were stopped by adding of 25 μL/well of 150 mM phosphoric acid. […] Plates were washed 6 times with 300 μL per well of a 75 mM phosphoric acid solution and the bottom of the plates was sealed. 40 μL/well of Microscint-20 was added, the top of the plates was sealed and readout was performed using the Topcount (Perkin Elmer). Kinase activity was calculated by subtracting counts per minute (cpm) obtained in the presence of a positive control inhibitor (10 μM staurosporine) from cpm obtained in the presence of vehicle. The ability of a test compound to inhibit this activity was determined as: Percentage inhibition=((cpm determined for sample with test compound present−cpm determined for sample with positive control inhibitor) divided by (cpm determined in the presence of vehicle−cpm determined for sample with positive control inhibitor))*100%.
Dose dilution series were prepared for the compounds enabling the testing of dose-response effects in the JAK2 assay and the calculation of the IC50 for each compound.

[3] = system: JAK-STAT signalling in HeLa cells; assay: JAK-STAT signalling assay (OSM-triggered pSTAT1(2)-luciferase reporter in HeLa cells); assay type: cell-based; conditions: Homo sapiens; HeLa cells, OSM-triggered pSTAT1(2)-luciferase reporter; read-out: STAT signalling EC50
Method: HeLa cells were maintained in Dulbecco's Modified Eagle's Medium (DMEM) containing 10% heat inactivated fetal calf serum, 100 U/mL penicillin and 100 μg/mL streptomycin. HeLa cells were used at 70% confluence for transfection. 20,000 cells in 87 μL cell culture medium were transiently transfected with 40 ng pSTAT1(2)-luciferase reporter (Panomics), 8 ng of LacZ reporter as internal control reporter and 52 ng of pBSK using 0.32 μL Jet-PEI (Polyplus) as transfection reagent per well in 96-well plate format. After overnight incubation at 37° C., 10% CO2, transfection medium was removed.
40 μL of cell lysate was used to read β-galactosidase activity by adding 180 μL βGal solution (30 μl ONPG 4 mg/mL+150 μL β-Galactosidase buffer (0.06 M Na2HPO4, 0.04 M NaH2PO4, 1 mM MgCl2)) for 20 min.
Luciferase activity was measured using 40 μL cell lysate plus 40 μl of Steadylite® as described by the manufacturer (Perkin Elmer), on the Envision (Perkin Elmer).
The positive and negative controls were used to calculate z’ and ‘percent inhibition’ (PIN) values.
PIN values were plotted for compounds tested in dose-response and EC50 values were derived.

Sequence of Recombinant human JAK1 catalytic domain (P23458 850-1154): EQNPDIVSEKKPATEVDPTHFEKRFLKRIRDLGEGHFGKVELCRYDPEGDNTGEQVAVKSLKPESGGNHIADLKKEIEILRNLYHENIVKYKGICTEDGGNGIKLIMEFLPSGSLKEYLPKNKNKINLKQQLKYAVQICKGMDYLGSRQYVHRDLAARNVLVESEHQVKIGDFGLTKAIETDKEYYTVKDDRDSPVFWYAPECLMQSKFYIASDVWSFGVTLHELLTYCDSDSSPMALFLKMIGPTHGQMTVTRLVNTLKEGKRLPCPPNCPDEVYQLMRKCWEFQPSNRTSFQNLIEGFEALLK

SMILES	IC50 [1]	IC50 [2]	EC50 [3]
O=C(Nc1nc2cccc(-c3cccc(OCc4ccccc4)c3)n2n1)C1CC1 [Compound 14, N-(5-(3-(benzyloxy)phenyl)-[1,2,4]triazolo[1,5-a]pyridin-2-yl)cyclopropanecarboxamide]	101 to 500 nM	501 to 1000 nM	> 1000 nM
O=C(Nc1nc2cccc(-c3ccc(-c4cccs4)cc3)n2n1)C1CC1 [Compound 20, N-(5-(4-(thiophen-2-yl)phenyl)-[1,2,4]triazolo[1,5-a]pyridin-2-yl)cyclopropanecarboxamide]	101 to 500 nM	501 to 1000 nM	501 to 1000 nM
N#CC1CCN(Cc2ccc(-c3cccc4nc(NC(=O)C5CC5)nn34)cc2)CC1 [Compound 232, Cyclopropanecarboxylic acid {5-[4-(4-cyano-piperidin-1-ylmethyl)-phenyl]-[1,2,4]triazolo[1,5-a]pyridin-2-yl}-amide]	< 100 nM	101 to 500 nM	> 1000 nM
Cc1ccc(C(N)=O)cc1NCc1ccc(-c2cccc3nc(NC(=O)C4CC4)nn23)cc1 [Compound 249]	< 100 nM	–	> 1000 nM
O=C(NCc1ccc(-c2cccc3nc(NC(=O)C4CC4)nn23)cc1)C1CCC1 [Compound 268, Cyclobutanecarboxylic acid 4-[2-(cyclopropanecarbonyl-amino)-[1,2,4]triazolo[1,5-a]pyridin-5-yl]-benzylamide]	< 100 nM	–	> 1000 nM
CC(=O)NC1CCCN(C(=O)c2ccc(-c3cccc4nc(NC(=O)C5CC5)nn34)cc2)C1 (centres unmarked) [Compound 296, Cyclopropanecarboxylic acid {5-[4-(3-acetylamino-piperidine-1-carbonyl)-phenyl]-[1,2,4]triazolo[1,5-a]pyridin-2-yl}-amide]	101 to 500 nM	501 to 1000 nM	–
CN(C)CC1CN(Cc2ccc(-c3cccc4nc(NC(=O)C5CC5)nn34)cc2)C1 [Compound 298, Cyclopropanecarboxylic acid {5-[4-(3-dimethylaminomethyl-azetidin-1-ylmethyl)-phenyl]-[1,2,4]triazolo[1,5-a]pyridin-2-yl}-amide]	> 1000 nM	> 1000 nM	–
CN(C)C(=O)C1CN(Cc2ccc(-c3cccc4nc(NC(=O)C5CC5)nn34)cc2)C1 [Compound 299, 1-{4-[2-(Cyclopropanecarbonyl-amino)-[1,2,4]triazolo[1,5-a]pyridin-5-yl]-benzyl}-azetidine-3-carboxylic acid dimethylamide]	501 to 1000 nM	> 1000 nM	–
O=C(Nc1nc2cccc(-c3ccc(CN4CC(N5CCOCC5)C4)cc3)n2n1)C1CC1 [Compound 300, Cyclopropanecarboxylic acid {5-[4-(3-morpholin-4-yl-azetidin-1-ylmethyl)-phenyl]-[1,2,4]triazolo[1,5-a]pyridin-2-yl}-amide]	> 1000 nM	> 1000 nM	–
O=C(Nc1nc2cccc(-c3ccc(CN4CC[C@H](O)C4)cc3)n2n1)C1CC1 [Compound 305, Cyclopropanecarboxylic acid {5-[4-((S)-3-hydroxy-pyrrolidin-1-ylmethyl)-phenyl]-[1,2,4]triazolo[1,5-a]pyridin-2-yl}-amide]	101 to 500 nM	> 1000 nM	–
O=C(Nc1nc2cccc(-c3ccc(CN4CC[C@@H](O)C4)cc3)n2n1)C1CC1 [Compound 307, Cyclopropanecarboxylic acid {5-[4-((R)-3-hydroxy-pyrrolidin-1-ylmethyl)-phenyl]-[1,2,4]triazolo[1,5-a]pyridin-2-yl}-amide]	101 to 500 nM	> 1000 nM	–
CN1CCN(C(=O)NCc2ccc(-c3cccc4nc(NC(=O)C5CC5)nn34)cc2)CC1 [Compound 308, 4-Methyl-piperazine-1-carboxylic acid 4-[2-(cyclopropanecarbonyl-amino)-[1,2,4]triazolo[1,5-a]pyridin-5-yl]-benzylamide]	101 to 500 nM	> 1000 nM	–
O=C(Nc1nc2cccc(-c3ccc(CNC(=O)N4CCOCC4)cc3)n2n1)C1CC1 [Compound 309, Morpholine-4-carboxylic acid 4-[2-(cyclopropanecarbonyl-amino)-[1,2,4]triazolo[1,5-a]pyridin-5-yl]-benzylamide]	101 to 500 nM	501 to 1000 nM	–
O=C1CN(Cc2ccc(-c3cccc4nc(NC(=O)C5CC5)nn34)cc2)CCN1 [Compound 311, Cyclopropanecarboxylic acid {5-[4-(3-oxo-piperazin-1-ylmethyl)-phenyl]-[1,2,4]triazolo[1,5-a]pyridin-2-yl}-amide]	101 to 500 nM	101 to 500 nM	–
O=C(Nc1nc2cccc(-c3ccc(CNC4CC4)cc3)n2n1)C1CC1 [Compound 312, Cyclopropanecarboxylic acid [5-(4-cyclopropylaminomethyl-phenyl)-[1,2,4]triazolo[1,5-a]pyridin-2-yl]-amide]	101 to 500 nM	101 to 500 nM	–
CC1(C)CN(Cc2ccc(-c3cccc4nc(NC(=O)C5CC5)nn34)cc2)C1 [Compound 314, Cyclopropanecarboxylic acid {5-[4-(3,3-dimethyl-azetidin-1-ylmethyl)-phenyl]-[1,2,4]triazolo[1,5-a]pyridin-2-yl}-amide]	101 to 500 nM	> 1000 nM	–
O=C(Nc1nc2cccc(-c3ccc(CN4CC(F)(F)C4)cc3)n2n1)C1CC1 [Compound 315, Cyclopropanecarboxylic acid {5-[4-(3,3-difluoro-azetidin-1-ylmethyl)-phenyl]-[1,2,4]triazolo[1,5-a]pyridin-2-yl}-amide]	101 to 500 nM	101 to 500 nM	–
O=C(Nc1nc2cccc(-c3ccc(CC(=O)N4CCC4)cc3)n2n1)C1CC1 [Compound 318, Cyclopropanecarboxylic acid {5-[4-(2-azetidin-1-yl-2-oxo-ethyl)-phenyl]-[1,2,4]triazolo[1,5-a]pyridin-2-yl}-amide]	101 to 500 nM	101 to 500 nM	–
CC1CC(C)CN(C(=O)Cc2ccc(-c3cccc4nc(NC(=O)C5CC5)nn34)cc2)C1 (centres unmarked) [Compound 320, Cyclopropanecarboxylic acid (5-{4-[2-(3,5-dimethyl-piperidin-1-yl)-2-oxo-ethyl]-phenyl}-[1,2,4]triazolo[1,5-a]pyridin-2-yl)-amide]	101 to 500 nM	101 to 500 nM	–
COC1CN(C(=O)Cc2ccc(-c3cccc4nc(NC(=O)C5CC5)nn34)cc2)C1 [Compound 321, Cyclopropanecarboxylic acid (5-{4-[2-(3-methoxy-azetidin-1-yl)-2-oxo-ethyl]-phenyl} - [1,2,4]triazolo[1,5-a]pyridin-2 yl)-amide]	< 100 nM	–	> 1000 nM
CC(=O)NC1CN(C(=O)Cc2ccc(-c3cccc4nc(NC(=O)C5CC5)nn34)cc2)C1 [Compound 322, Cyclopropanecarboxylic acid (5-{4-[2-(3-acetylamino-azetidin-1-yl)-2-oxo-ethyl]-phenyl}-[1,2,4]triazolo[1,5-a]pyridin-2-yl)-amide]	> 1000 nM	> 1000 nM	–
CN(C)C(=O)C1CN(C(=O)Cc2ccc(-c3cccc4nc(NC(=O)C5CC5)nn34)cc2)C1 [Compound 324, 1-(2-{4-[2-(Cyclopropanecarbonyl-amino)-[1,2,4]triazolo[1,5-a]pyridin-5-yl]-phenyl}-acetyl)-azetidine-3-carboxylic acid dimethylamide]	> 1000 nM	> 1000 nM	–
